US20250127907A1, “PARP INHIBITORS” (Stablix, Inc., priority 2023, published 2025)

What was measured:
Format in all cases: cell-based
[1] = system: Poly/Mono-ADP Ribose in U2OS cells; assay: PAR in cell western assay (parylation) in U2OS cells; details: Homo sapiens; U2OS cells, 6 hrs, 2 mM H2O2; read-out: Parylation (U2OS)
Experimental: U2OS cells are seeded at 2667 cells per well in 24 ul medium into poly-D lysine-coated 384 well plate and incubated in the TC incubator for O/N
The next day, test comps are diluted in a source plate and 6 μL of the diluted comp is added to the cell plate; mixed well and incubated for 6 hrs. DNA damage is induced with 2 mM H2O2 for 10 min. After discarding the medium, cells are fixed in ice cold Methanol at for 20 min at −20C. After a wash step at room temperature, cells are permeabilized with 0.05% NP-40 in PBS for 10 min, followed by wash steps. Cells are blocked with 1% BSA, at room temperature for 1 hr. Cells are stained with anti mono/polyADP ribose antibody (E6F6A, Cell signaling, 1:5000) in 1×PBS/1% BSA/0.05% Tween o/n at 4C.
Next Day, cells are washed and incubated with anti-Rabbit 800CV (Licor antibody, 1:500) and CellTag 700 (Licor, 1:800) in 1×PBS/1% BSA/0.05% Tween for 1 h. After washing, plates are scanned using LICOR and are quantified.
Parylation inhibition is reported as % control inhibition.
(§1) The letter codes for the PARP1-enzyme assay include: A (<1 nM), B (>1-10 nM), C (>10-100 nM), D (>100-1000 nM), E (>1000 nM), and “-” is not tested. The letter codes for the PARP trapping assay, and parylation assay include: A (<10 nM), B (>10-100 nM), C (>100-1000 nM), […], E (>10000 nM), and “-” is not tested.

[2] = system: A2780 cells; assay: Cell proliferation assay (A2780); details: Homo sapiens, 168 h, 7 days
Experimental: (§2) Cells are counted, diluted to desired density and 40 μL of cell suspension is added into each 384-well tissue-culture treated plates. Plates are incubated in Tissue Culture incubator at 37° C./5% C02 overnight.
(§3) Next day, 40 nl test compounds that are prepared from source plates are transferred to the seeded cells from overnight. Plates are incubated at 37° C./5% C02 for a total of 7 days. After 7-day incubation, plates are equilibrated to room temperature and 30 ul of Cell Counting-Lite is added to each well for a 30 min incubation followed by reading on EnVision.
(§4) The letter codes for the cell proliferation assay in A2780, HCC1806, and MDA-MB-436 cells include: A (<10 nM), B (>10-100 nM), C (>100-1000 nM), D (>1000-10000 nM), E (>10000 nM), and “-” is not tested.

[3] = molecular target: PARP1 (Homo sapiens, UniProt P09874); assay: PARP trapping assay in U2OS cells; set-up: endogenous in cells; host or cells: U2OS; details: U2OS cells, MMS, 4 hrs; read-out: PARP Trapping (U2OS)
PARP1, sequence (P09874 whole entry): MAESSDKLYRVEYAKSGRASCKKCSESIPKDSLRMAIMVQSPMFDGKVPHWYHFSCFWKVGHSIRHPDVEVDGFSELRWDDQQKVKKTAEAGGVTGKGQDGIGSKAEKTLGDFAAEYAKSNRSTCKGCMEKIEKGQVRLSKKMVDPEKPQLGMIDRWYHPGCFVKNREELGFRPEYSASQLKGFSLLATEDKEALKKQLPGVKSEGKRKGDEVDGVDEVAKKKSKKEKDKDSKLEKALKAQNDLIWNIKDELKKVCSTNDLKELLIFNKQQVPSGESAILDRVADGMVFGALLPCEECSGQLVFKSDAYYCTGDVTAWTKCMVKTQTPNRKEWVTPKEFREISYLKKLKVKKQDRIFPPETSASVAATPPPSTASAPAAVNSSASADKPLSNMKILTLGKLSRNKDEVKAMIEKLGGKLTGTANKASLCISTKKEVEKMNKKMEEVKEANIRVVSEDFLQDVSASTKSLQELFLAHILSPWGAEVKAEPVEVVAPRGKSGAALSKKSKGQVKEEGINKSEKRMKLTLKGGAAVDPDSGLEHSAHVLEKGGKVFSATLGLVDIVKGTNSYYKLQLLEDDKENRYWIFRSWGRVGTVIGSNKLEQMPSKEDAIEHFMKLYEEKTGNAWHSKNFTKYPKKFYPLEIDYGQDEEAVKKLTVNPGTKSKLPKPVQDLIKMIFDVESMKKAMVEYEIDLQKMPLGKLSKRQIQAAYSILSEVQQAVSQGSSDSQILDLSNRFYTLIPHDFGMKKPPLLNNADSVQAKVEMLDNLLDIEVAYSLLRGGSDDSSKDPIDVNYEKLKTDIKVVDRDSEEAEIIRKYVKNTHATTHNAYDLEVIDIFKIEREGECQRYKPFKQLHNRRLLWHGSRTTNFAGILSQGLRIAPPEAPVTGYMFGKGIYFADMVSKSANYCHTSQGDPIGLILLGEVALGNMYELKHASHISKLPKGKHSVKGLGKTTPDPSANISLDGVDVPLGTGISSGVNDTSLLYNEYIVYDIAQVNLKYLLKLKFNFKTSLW
Experimental: U2OS cells are seeded at 15,000 cells/well in 90 ul medium and incubated in the TC incubator for overnight.
Next day, test compounds are prepared in a source plate along with addition of DNA damage reagent MMS simultaneously and 10 ul of the diluted mixture is added to the cell plate and incubated for 4 hrs under T/C conditions.
After 4 hrs, following aspiration and washing, add 100 ul of cold cytoskeleton removal buffer (0.5% Triton X-100) and incubated for 10 min. At the end of incubation, slowly the buffer is removed, and cells are fixed with ice cold MeOH for 15 min at −20C. Followed by wash steps, cells are blocked with 1×PBS/3% BSA/0.05% Tween for 1 h at room temperature.
Cells are stained with anti PARP1 antibody (abeam ab227244, 1:1000), in 1×PBS/1% BSA overnight at 4C.
Wash and add DAPI, scan cells in Celigo.
Data Analysis: DAPI staining is used to segment nuclei and AF488 fluorescence intensity per nucleus is measured.
as §1

[4] = system: MDA-MB-436 cells; assay: Cell proliferation assay (MDA-MB-436); details: Homo sapiens, 168 h, 7 days
Experimental: as §2, §3, §4

[5] = system: HCC1806 cells; assay: Cell proliferation assay (HCC1806); details: Homo sapiens, 168 h, 7 days
Experimental: as §2, §3, §4

Row | IC50 [1] [nM] | IC50 [2] [nM] | IC50 [3] [nM] | IC50 [4] [nM] | IC50 [5] [nM] | Structure (SMILES)
1 | 100 to 1000 | 10 to 100 | < 10 | 10 to 100 |  | O=C(N[C@@H](C(=O)N1CCN(CC23CCC(C(=O)N4CCN(C(=O)c5cc(Cc6n[nH]c(=O)c7ccccc67)ccc5F)CC4)(CC2)CO3)CC1)C1CCCCC1)c1cccc([C@H]2CCCN(C(=O)CNC3CC3)C2)c1 (racemic) [Compound I-381]
2 | 10 to 100 | 100 to 1000 | 10 to 100 | 100 to 1000 |  | CCOc1cc(OC)ccc1CNCC(=O)N1CCCC(c2ccc(F)c(C(=O)N[C@@H](C(=O)N3CCN(CC4CCN(CC(=O)N5CCN(C(=O)c6cc(Cc7n[nH]c(=O)c8ccccc78)ccc6F)CC5)CC4)CC3)C3CCCCC3)c2)C1 (some centres unmarked) [Compound I-308]
3 | 10 to 100 | 100 to 1000 | 100 to 1000 | 10 to 100 |  | CCc1cccc(-c2cnc(C(=O)N3CCC(CN4CCN(CC(=O)N5CCN(C(=O)c6cc(Cc7n[nH]c(=O)c8ccccc78)ccc6F)CC5)CC4)CC3)c(NC(=O)CN3CCOCC3)c2)c1 [Compound I-333]
4 | 10 to 100 | 10 to 100 | 10 to 100 | < 10 |  | O=C(N[C@@H](C(=O)N1CCN(CC23CCC(C(=O)N4CCN(C(=O)c5cc(Cc6n[nH]c(=O)c7ccccc67)ccc5F)CC4)(CC2)CO3)CC1)C1CCCCC1)c1cccc(C2CCCN(C(=O)CNC3CC3)C2)c1 (some centres unmarked) [Compound I-380]
5 | 10 to 100 | 10 to 100 | 10 to 100 | < 10 |  | O=C(N[C@@H](C(=O)N1CCN(CC23CCC(C(=O)N4CCN(C(=O)c5cc(Cc6n[nH]c(=O)c7ccccc67)ccc5F)CC4)(CC2)CO3)CC1)C1CCCCC1)c1cccc([C@@H]2CCCN(C(=O)CNC3CC3)C2)c1 [Compound I-382]
6 | 100 to 1000 | 100 to 1000 | 100 to 1000 | < 10 |  | CCc1cccc(-c2cc(N)c(C(=O)N3CCC(CN4CCN(CC(=O)N5CCN(C(=O)c6cc(Cc7n[nH]c(=O)c8ccccc78)ccc6F)CC5)CC4)CC3)c(F)c2)c1 [Compound I-409]
7 | 100 to 1000 | 10 to 100 | 10 to 100 | < 10 |  | CCc1cccc(-c2cnc(C(=O)N3CCC(CC(=O)N4CCN(C(=O)c5cc(Cc6n[nH]c(=O)c7ccccc67)ccc5F)CC4)CC3)c(NC(=O)CNCc3cccc(C)c3)c2)c1 [Compound I-412]
8 | 10 to 100 | 10 to 100 | 100 to 1000 | < 10 |  | CCc1cccc(-c2cnc(C(=O)N3CCC(CN4CCN(CC(=O)N5CCN(C(=O)c6cc(Cc7n[nH]c(=O)c8ccccc78)ccc6F)CC5)CC4)CC3)c(C#N)c2)c1 [Compound I-419]
9 | 100 to 1000 | 10 to 100 | 100 to 1000 | 10 to 100 |  | O=C(N[C@@H](C(=O)N1CCN(CC(=O)N2CCN(C(=O)c3cc(Cc4n[nH]c(=O)c5ccccc45)ccc3F)CC2)CC1)C1CCCCC1)c1cc(C2CCCN(C(=O)C3CC3)C2)ccc1F (some centres unmarked) [Compound I-453]
10 | 10 to 100 | 10 to 100 | 100 to 1000 | 100 to 1000 |  | O=C(N[C@@H](C(=O)N1CCN(CC(=O)N2CCN(C(=O)c3cc(Cc4n[nH]c(=O)c5ccccc45)ccc3F)CC2)CC1)C1CCCCC1)c1cccc(C2CCCN(C(=O)C3CC3)C2)c1F (some centres unmarked) [Compound I-454]
11 | < 10 |  | 10 to 100 | < 10 | 10 to 100 | O=C(CN1CCC(OC2CCN(C(=O)c3c(F)cc(-c4ccccc4)cc3F)CC2)CC1)N1CCN(C(=O)c2cc(Cc3n[nH]c(=O)c4ccccc34)ccc2F)CC1 [Compound I-634]
12 | 100 to 1000 |  | 10 to 100 | 100 to 1000 | 10 to 100 | O=C(N[C@@H](C(=O)N1CCC(OC2CCN(CC(=O)N3CCN(C(=O)c4cc(Cc5n[nH]c(=O)c6ccccc56)ccc4F)CC3)CC2)CC1)C1CCCCC1)c1cccc(C2CCCN(C(=O)C34CC(C3)C4)C2)c1F (some centres unmarked) [Compound I-637]
13 | 100 to 1000 |  | 10 to 100 | < 10 | 10 to 100 | CC1(C(=O)N2CCCC(c3cccc(C(=O)N[C@@H](C(=O)N4CCC(OC5CCN(CC(=O)N6CCN(C(=O)c7cc(Cc8n[nH]c(=O)c9ccccc89)ccc7F)CC6)CC5)CC4)C4CCCCC4)c3F)C2)CC1 (some centres unmarked) [Compound I-660]
14 | 100 to 1000 |  | 10 to 100 | < 10 | 10 to 100 | CC(C)(C)C(=O)N1CCCC(c2cccc(C(=O)N[C@@H](C(=O)N3CCC(OC4CCN(CC(=O)N5CCN(C(=O)c6cc(Cc7n[nH]c(=O)c8ccccc78)ccc6F)CC5)CC4)CC3)C3CCCCC3)c2F)C1 (some centres unmarked) [Compound I-661]
15 | < 10 |  | 10 to 100 | < 10 | 10 to 100 | O=C(CN1CCC(OC2CCN(C(=O)c3ncc(-c4ccccc4)cc3F)CC2)CC1)N1CCN(C(=O)c2cc(Cc3n[nH]c(=O)c4ccccc34)ccc2F)CC1 [Compound I-709]
16 | 10 to 100 |  | 10 to 100 | < 10 | 10 to 100 | O=C(N[C@@H](C(=O)N1CCC(CC(=O)N2CCN(C(=O)c3cc(Cc4n[nH]c(=O)c5ccccc45)ccc3F)CC2)CC1)C1CCCCC1)c1cccc(C2CCCN(C(=O)C3CC3)C2)c1F (some centres unmarked) [Compound I-715]
17 | < 10 |  | < 10 | < 10 | 10 to 100 | O=C(CN1CCC(OC2CCN(C(=O)c3c(F)cc(-c4ccncc4)cc3F)CC2)CC1)N1CCN(C(=O)c2cc(Cc3n[nH]c(=O)c4ccccc34)ccc2F)CC1 [Compound I-727]
18 | 10 to 100 |  | 10 to 100 | < 10 | 10 to 100 | CC1(C)CC(c2ccc(C(=O)N[C@@H](C(=O)N3CCC(OC4CCN(CC(=O)N5CCN(C(=O)c6cc(Cc7n[nH]c(=O)c8ccccc78)ccc6F)CC5)CC4)CC3)C3CCCCC3)c(F)c2)CCN1C(=O)C1CC1 (some centres unmarked) [Compound I-743]
19 | 10 to 100 |  | 10 to 100 | < 10 | 10 to 100 | O=C(N[C@@H](C(=O)N1CCC(OC2CCN(CC(=O)N3CCN(C(=O)c4cc(Cc5n[nH]c(=O)c6ccccc56)ccc4F)CC3)CC2)CC1)C1CCCCC1)c1ccc(N2CCN(C(=O)C3CC3)CC2)cc1F [Compound I-745]
20 | 10 to 100 | 10 to 100 |  | < 10 | 10 to 100 | O=C(CN1CCN(C[C@@H]2C[C@H]3CC[C@@H]2CN3C(=O)c2c(F)cc(-c3ccccc3)cc2F)CC1)N1CCN(C(=O)c2cc(Cc3n[nH]c(=O)c4ccccc34)ccc2F)CC1 [Compound I-774]
21 | 10 to 100 | 10 to 100 |  | < 10 | 10 to 100 | O=C(CN1CCN(C[C@@H]2C[C@@H]3CC[C@H]2CN3C(=O)c2c(F)cc(-c3ccccc3)cc2F)CC1)N1CCN(C(=O)c2cc(Cc3n[nH]c(=O)c4ccccc34)ccc2F)CC1 [Compound I-777]
22 | 100 to 1000 | 10 to 100 |  | < 10 | 10 to 100 | CC(C)(C)C(=O)N1CCC[C@H](c2cccc(C(=O)N[C@@H](C(=O)N3CCC(OC4CCN(CC(=O)N5CCN(C(=O)c6cc(Cc7n[nH]c(=O)c8ccccc78)ccc6F)CC5)CC4)CC3)C3CCCCC3)c2F)C1 [Compound I-910]
23 | 100 to 1000 | 100 to 1000 |  | 10 to 100 | 100 to 1000 | C[C@@H]1CN(CC2CCN(CC(=O)N3CCN(C(=O)c4cc(Cc5n[nH]c(=O)c6ccccc56)ccc4F)CC3)CC2)CCN1C(=O)[C@H](NC(=O)c1cccc([C@@H]2CCCN(C(=O)C(C)(C)C)C2)c1)C1CCCCC1 [Compound I-973]
